The text below walks through data of ChEMBL document CHEMBL4270503, “Recent developments in small molecule therapies for renal cell carcinoma” (Eur J Med Chem, 2017).

Molecules are shown by their SMILES. pIC50: −log10 of the molar value.

The species entered for assay [1] is Homo sapiens. Kind of assay: Antitumor activity in renal cell carcinoma patient with previous sunitinib treatment assessed as progression free survival. In kind it is functional.
Assay [2] is filed under the species Homo sapiens. Nature of the assay: Antitumor activity in renal cell carcinoma patient with previous cytokine therapies assessed as progression free survival. It is filed as functional.
For assay [3], the species on record is Homo sapiens. Kind of assay: Antitumor activity in patient with metastatic renal cell carcinoma assessed as progression free survival. It is filed as functional.
The species entered for assay [4] is Homo sapiens. Kind of assay: Antitumor activity in patient with metastatic renal cell carcinoma assessed as overall survival. In kind it is functional.
For assay [5], the species on record is Homo sapiens. Nature of the assay: Antitumor activity in renal cell carcinoma patient without previous VEGFR TKI treatment assessed as progression free survival (reference value: 1.9 months). It is filed as functional.
The species named for assay [6] is Homo sapiens. Kind of assay: Antitumor activity in renal cell carcinoma patient with 2 previous VEGFR TKI treatment assessed as progression free survival (reference value: 1.8 months). In kind it is functional.
Assay [7] is filed under the species Homo sapiens. Kind of assay: Antitumor activity in patient with renal cell carcinoma assessed as overall survival during phase 3 non-inferiority trial. In kind it is functional.
For assay [8], the species on record is Homo sapiens. Nature of the assay: Antitumor activity in treatment-naive and cytokine-refractory patient with renal cell carcinoma assessed as progression free survival (reference value: 4.2 months). It is filed as functional.
For assay [9], the system named is HUVEC. Nature of the assay: cells. To be noted: Homo sapiens.
For assay [10], the species on record is Homo sapiens. Kind of assay: Antitumor activity in patient with renal cell carcinoma assessed as progression free survival during phase 3 non-inferiority trial. In kind it is functional.
Another assay relates to CAKI-2. Kind of assay: Antitumor activity against human Caki2 cells xenografted in nuded mouse assessed as inhibition of tumor growth at 10 mg/kg, po. In kind it is functional. To be noted: CAKI-2, po, read-out: TGI. (In xenograft studies the graft and the host belong to different species.)
Assay [11] deals with HUVEC. Nature of the assay: cells. As to conditions: Homo sapiens. This is another data set of the same source.
Assay [12] is filed under the species Homo sapiens. Kind of assay: Antitumor activity in patient with renal cell carcinoma assessed as overall survival (reference value: 15.2 months). It is filed as functional.
For assay [13], the species on record is Homo sapiens. Nature of the assay: Antitumor activity in patient with renal cell carcinoma assessed as progression free survival (reference value: 2.8 months). It is filed as functional.
For assay [14], the species on record is Homo sapiens. Kind of assay: Antitumor activity in patient with metastatic renal cell carcinoma assessed as progression free survival during phase 3 trial. In kind it is functional.
The species entered for assay [15] is Homo sapiens. Kind of assay: Antitumor activity in patient with metastatic renal cell carcinoma assessed as objective response during phase 3 trial. It is filed as functional.
The species entered for assay [16] is Homo sapiens. Nature of the assay: Antitumor activity in patient with renal cell carcinoma assessed as progression free survival during phase 2 trial. It is filed as functional.
For assay [17], the species on record is Homo sapiens. Kind of assay: Antitumor activity in patient with metastatic renal cell carcinoma assessed as overall survival during phase 3 trial. In kind it is functional.
The species entered for assay [18] is Homo sapiens. Kind of assay: Antitumor activity in patient with metastatic renal cell carcinoma assessed as progression free survival co-treated with IFNalpha during phase 3 trial. It is filed as functional.

Regarding `CNC(=O)c1ccccc1Sc1ccc2c(/C=C/c3ccccn3)n[nH]c2c1` [AXITINIB], the Survival in the assay listed under Homo sapiens [1] was determined as 4.8 months; in the assay filed under Homo sapiens [2], 12.1 months.
Regarding `COc1cc2nccc(Oc3ccc(NC(=O)C4(C(=O)Nc5ccc(F)cc5)CC4)cc3)c2cc1OC` [CABOZANTINIB], in the assay listed under Homo sapiens [3], the Survival was determined as 7.4 months.
With `CO[C@H]1C[C@@H]2CC[C@@H](C)[C@@](O)(O2)C(=O)C(=O)N2CCCC[C@H]2C(=O)O[C@H]([C@H](C)C[C@@H]2CC[C@@H](OCCO)[C@H](OC)C2)CC(=O)[C@H](C)/C=C(\C)[C@@H](O)[C@@H](OC)C(=O)[C@H](C)C[C@H](C)/C=C/C=C/C=C/1C` [EVEROLIMUS], the Survival worked out at 16.5 months in the assay filed under Homo sapiens [4], 5.4 months in the assay listed under Homo sapiens [5], 3.9 months in the assay filed under Homo sapiens [3] and 4 months in the assay listed under Homo sapiens [6].
A word on the pIC50: it is −log10 of the IC50, conventionally taken in molar units. Turning to `Cc1ccc(Nc2nccc(N(C)c3ccc4c(C)n(C)nc4c3)n2)cc1S(N)(=O)=O` [PAZOPANIB], the Survival amounted to 28.3 months in the assay filed under Homo sapiens [7], 9.2 months in the assay listed under Homo sapiens [8] and 8.4 months in the assay listed under Homo sapiens [10]. Also, the pIC50 in the assay with HUVEC [9] was 6.14; with HUVEC [11] it was 7.68. Besides, the inhibition in vivo at 10 mg/kg in the assay on CAKI-2 turned out to be 77%.
For the molecule `CNC(=O)c1cc(Oc2ccc(NC(=O)Nc3ccc(Cl)c(C(F)(F)F)c3)cc2)ccn1` [SORAFENIB], the Survival was 17.8 months in the assay filed under Homo sapiens [12], 5.5 months in the assay listed under Homo sapiens [13], 3.4 months in the assay filed under Homo sapiens [1] and 6.5 months in the assay listed under Homo sapiens [2].
For the molecule `CCN(CC)CCNC(=O)c1c(C)[nH]c(/C=C2\C(=O)Nc3ccc(F)cc32)c1C` [SUNITINIB], the Survival in the assay filed under Homo sapiens [7] is 29.1 months; in the assay listed under Homo sapiens [14] it was 11 months; in the assay filed under Homo sapiens [16], 7.8 months; in the assay filed under Homo sapiens [17] it was 26.4 months. The Activity in the assay listed under Homo sapiens [15] was 31%.
On to `CO[C@H]1C[C@@H]2CC[C@@H](C)[C@@](O)(O2)C(=O)C(=O)N2CCCC[C@H]2C(=O)O[C@H]([C@H](C)C[C@@H]2CC[C@@H](OC(=O)C(C)(CO)CO)[C@H](OC)C2)CC(=O)[C@H](C)/C=C(\C)[C@@H](O)[C@@H](OC)C(=O)[C@H](C)C[C@H](C)/C=C/C=C/C=C/1C` [TEMSIROLIMUS], for which the figures for the Survival in the assay listed under Homo sapiens [14] and in the assay filed under Homo sapiens [18] were 10.9 months and 8.4 months, respectively.
